Here are results for four compounds from ChEMBL document CHEMBL1158909, “A New Brominated Diphenyl Ether from a Philippine Dysidea Species” (J Nat Prod, 1990).

Molecules are shown by their SMILES. Calls of active or inactive are those of the source. The calls are words filed in the database; no cut-off is given here.

Test [1] deals with Staphylococcus aureus. Kind of test: Antimicrobial activity against Staphylococcus aureus. The class given is functional, organism-based.
Test [2] has as its system Bacillus subtilis. Kind of test: Antimicrobial activity against Bacillus subtilis. The class given is functional, organism-based.

For the compound `COc1c(Br)c(Br)c(Br)c(Br)c1Oc1ccccc1Br`, the result in test [1] and in test [2] was inactive.
`Oc1c(Br)c(Br)c(Br)c(Br)c1Oc1ccccc1Br`: the result in test [1] and in test [2] was Active.
As to `COc1c(Br)c(Br)c(Br)c(Br)c1Oc1ccc(Br)cc1Br`, the outcome in test [1] and in test [2] was inactive.
Turning to `Oc1c(Br)c(Br)c(Br)c(Br)c1Oc1ccc(Br)cc1Br`, the result in test [1] and in test [2] was Active.
